Assay results reported in PubChem BioAssay (NCI).
Values joined by “and” are separate entries in the source; they are usually repeats but may differ in a detail not shown here. Identical values can stand only once.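 Interpolation was linear, between the two tested concentrations surrounding the appropriate level; five concentrations were tested over 48 hours in 96-well plates. At the GI50, growth is halved. At the TGI there is no net growth.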

Experiments:
Test in all cases: NCI anticancer screen, dose series, 48 h
NCI-H460 lung = system: NCI-H460 lung
HS 578T breast = system: HS 578T breast
MDA-MB-435 = system: MDA-MB-435
UACC-257 melanoma = system: UACC-257 melanoma
SK-MEL-28 melanoma = system: SK-MEL-28 melanoma
SF-539 CNS = system: SF-539 CNS
SK-MEL-2 melanoma = system: SK-MEL-2 melanoma
NCI-H23 lung = system: NCI-H23 lung
OVCAR-8 ovarian = system: OVCAR-8 ovarian
SK-MEL-5 melanoma = system: SK-MEL-5 melanoma

Row | SMILES | GI50 (NCI-H460 lung) | TGI (NCI-H460 lung) | GI50 (HS 578T breast) | TGI (HS 578T breast) | GI50 (MDA-MB-435) | TGI (MDA-MB-435) | GI50 (UACC-257 melanoma) | TGI (UACC-257 melanoma) | GI50 (SK-MEL-28 melanoma) | TGI (SK-MEL-28 melanoma) | GI50 (SF-539 CNS) | TGI (SF-539 CNS) | GI50 (SK-MEL-2 melanoma) | TGI (SK-MEL-2 melanoma) | GI50 (NCI-H23 lung) | TGI (NCI-H23 lung) | GI50 (OVCAR-8 ovarian) | TGI (OVCAR-8 ovarian) | GI50 (SK-MEL-5 melanoma) | TGI (SK-MEL-5 melanoma)
1 | CN(C)C(=O)Nc1nc2cc(Cl)c(Cl)cc2[nH]1 | 0.44 µM | 30 µM | 1.26 µM | > 55.1 µM | 0.2 µM | 3.85 µM | > 100 µM | > 100 µM | 8.63 µM | > 100 µM | 0.537 µM | 6.05 µM | 4.55 µM | > 49.1 µM | 2.07 µM | > 66.5 µM | 2.46 µM | > 60.4 µM | 0.441 µM | > 100 µM
2 | O=C(NCCN1CCOCC1)OCc1nc2nc(Cl)nc(N3CCOCC3)c2[nH]1 | 3.29 µM | > 100 µM | 2.85 µM | > 100 µM | 0.651 µM | 2.94 µM | > 100 µM | > 100 µM | > 100 µM | > 100 µM | 0.402 µM | 3.29 µM | 6.66 µM | > 100 µM | 3.56 µM | > 100 µM | 2.09 µM | > 100 µM | 2.1 µM | 4.72 µM
3 | COc1ccc2c(c1)/C(=C\c1ccncc1)C(=O)N2 | 6.68 µM | > 100 µM | 27.4 µM | 82.1 µM | 6.57 µM | 39.3 µM | 4.62 µM | 18.3 µM | – | – | 2.98 µM | 11.4 µM | 6.12 µM | 23.6 µM | 12.3 µM | 43.5 µM | 10.3 µM | 32.7 µM | 13.1 µM | 27.6 µM
4 | COc1ccc2c(c1)nc(NNC(=O)c1cnccn1)c1cccn12 | 0.125 µM | 4.02 µM | 1.66 µM | 11.1 µM | 0.338 µM | 2.59 µM | 0.756 µM | 4.42 µM | 0.444 µM | 3.52 µM | 0.393 µM | 2.6 µM | 0.697 µM | 3.88 µM | 0.64 µM | 5.24 µM | 0.229 µM | 3.05 µM | 0.27 µM | 1.22 µM
5 | O=C1NC(N/N=C\C(O)C(O)C(O)C(O)CO)=N/C1=C/c1ccccc1 (stereo unspecified) | 75.8 µM and 11.8 µM and > 100 µM | > 100 µM and 25.6 µM | > 100 µM and 24.6 µM | > 100 µM and 73.4 µM | 85.7 µM and 15.7 µM and > 100 µM | > 100 µM and 34.9 µM | > 100 µM and 19.9 µM | > 100 µM and 45 µM | 37.3 µM and 24 µM and > 100 µM | > 100 µM | > 100 µM and 17.4 µM | > 100 µM and 35.3 µM | > 100 µM and 16.6 µM | > 100 µM and 32.7 µM | > 100 µM and 19.3 µM | > 100 µM and 36.5 µM | > 100 µM and 22.8 µM | > 100 µM and 52.5 µM | 44.5 µM and 14.8 µM and > 100 µM | > 100 µM and 29.2 µM
6 | COc1ccccc1/C=C1\COc2ccc(-c3ccccc3)cc2C1=O | 2.1 µM | 4.62 µM | 2.75 µM | 7.29 µM | 2.11 µM | > 100 µM | – | – | 3.61 µM | 13.3 µM | 2.61 µM | 6.44 µM | 3.82 µM | 22.1 µM | 4.38 µM | 59.3 µM | 3.27 µM | 10.5 µM | 2.19 µM | 7.61 µM
